98 compounds from ChEMBL document CHEMBL3507680, “University of Dundee, Gates Library screen for HepG2 cell viability” can be followed below.

Structures are written as SMILES.

A short description of this series: Human HepG2 cell viability assay in 384 well format. In kind it is toxicity, cell-based. On the set-up: dose 125 nL, time 70.5 hour; concentration not given beside the values. The settings on record: HepG2 cells, read-out: Inhibition.
`CSc1ccc(C(=O)C2CCCN(C(=O)CCCn3cncn3)C2)cc1` (stereo not drawn): the cytotoxicity at 70.5 h was -6.96%. For `CCCc1ccc2oc(C(=O)N3CCN(CCC(N)=O)CC3)c(C)c2c1`, the cytotoxicity at 70.5 h stood at 19.5%. On to `O=C(Nc1ccccc1N1CCOC1=O)N1CCSCC1`, for which the cytotoxicity at 70.5 h worked out at 14.3%. As to `COc1cccc2c(=O)n(C3CCNCC3)cnc12`, the cytotoxicity at 70.5 h was -18.3%. Turning to `CCN(CC)Cc1cc(C(=O)N2CCCC(CC)(C(=O)O)C2)c(C)o1` (stereo not drawn), the cytotoxicity at 70.5 h is -3.17%. In the case of `Cc1ccc2ncn(C(C)Cn3cccn3)c(=O)c2c1` (stereo not drawn), the cytotoxicity at 70.5 h was -5.52%. Take `O=C(CCn1cncn1)N1C[C@H]2CC[C@@H]1CN(Cc1cccnc1)C2`: the cytotoxicity at 70.5 h is -9.48%.

As to `CCc1nnc(CN(C)C(=O)C(CC)n2c(CC)nc3ccccc32)o1` (stereo not drawn), the cytotoxicity at 70.5 h worked out at 3.98%.

Regarding `O=C1[C@@H]2C[C@H](O)CCN2C(=O)CN1CCSc1ccccn1`, the cytotoxicity at 70.5 h is 0.109%. In the case of `C1=CCN(c2nc(CC3CC3)nc3c2CCN(C2CCOCC2)CC3)C1`, the cytotoxicity at 70.5 h was -1.95%. For the compound `COc1cc(N2CCN(Cc3ccsc3)C(CCO)C2)nc(N)n1` (stereo not drawn), the cytotoxicity at 70.5 h is 9.1%. In the case of `CCNC(=O)[C@@H]1C[C@@H](N)CN1Cc1ccc2cccc(Cl)c2n1`, the cytotoxicity at 70.5 h stood at 20.1%.

On to `OCc1cn(CC2CCN(C3CCSC3)CC2)nn1` (stereo not drawn), for which the cytotoxicity at 70.5 h was -8.28%. With `CCCOC(=O)N1CCc2cccc(S(=O)(=O)N3CCOCC3)c2C1`, the cytotoxicity at 70.5 h is -8.66%. Turning to `CCCN1CCCn2nc(CNC(=O)CN(C)C3CCCC3)cc2C1`, the cytotoxicity at 70.5 h is -8%. As for `Cc1nc(CC(=O)NCCN2CCC(c3ccccc3C)C2)cs1` (stereo not drawn), the cytotoxicity at 70.5 h is -8.35%. Consider `O=C(O)C1(Oc2ccccc2F)CCN(C/C=C/c2ccco2)CC1`, for which the cytotoxicity at 70.5 h was -7.74%. Consider `NC(=O)c1csc(N2C[C@@H](CN3CCC(O)CC3)[C@@H](CO)C2)n1`, for which the cytotoxicity at 70.5 h was -6.31%. As for `CN(Cc1cc(C2CC2)[nH]n1)Cc1cc2ccc(F)cc2[nH]c1=O`, the cytotoxicity at 70.5 h was -12.6%. For `CN(C)CCN1CC(C(=O)NCc2cn3cccnc3n2)CC1=O` (stereo not drawn), the cytotoxicity at 70.5 h was -5.17%.

Consider `CCc1ncc(C(=O)NCCN2CCNC2=O)cn1`, for which the cytotoxicity at 70.5 h is -5.68%. Take `COCCN1CCN(Cc2ccc(C(C)=O)cc2)[C@H]2CS(=O)(=O)C[C@H]21`: the cytotoxicity at 70.5 h is -5.05%. With `Cc1ncc(S(C)(=O)=O)c(N2CCCN(Cc3ccccn3)CC2)n1`, the cytotoxicity at 70.5 h is -5.13%.

Turning to `CCC[C@@H]1CN(c2ncnc3ccsc23)C[C@H]1NS(C)(=O)=O`, the cytotoxicity at 70.5 h is -8.21%. For the compound `Fc1ccc(CC2CCN(Cc3nccs3)CC2)cc1`, the cytotoxicity at 70.5 h is -7.34%. To `CN(C)CCN1CC2(CCCN(c3ccc(Cl)cn3)C2)CCC1=O` (stereo not drawn) belongs 3.01%; to `CN(C)C[C@H]1C[C@@H](CO)CN(C(=O)CCc2nc(Cl)n[nH]2)C1`, 4.5%. Turning to `CSc1ccc(CN2CCn3nc(CNC(C)=O)cc3C2)cc1`, the cytotoxicity at 70.5 h is -28.8%.

For `Cc1ccn(CCNc2ncnc3c2CCN(S(C)(=O)=O)CC3)n1`, the cytotoxicity at 70.5 h worked out at 1.8%. On to `CCCc1nnc(N2CCN(c3cccc(OC)c3)C(=O)C2)o1`, for which the cytotoxicity at 70.5 h turned out to be 15.6%. Consider `O=C(NCCCn1ccnn1)C1CCCN(C2CCCC2)C1` (stereo not drawn), for which the cytotoxicity at 70.5 h was -1.79%. With `CSCCCN1CC[C@@]2(O)CCN(c3ncccn3)C[C@H]2C1`, the cytotoxicity at 70.5 h is -2.32%. In the case of `CCC(Nc1ncccn1)c1cccnc1` (stereo not drawn), the cytotoxicity at 70.5 h came to 8.36%.

On to `CC(C)OC(=O)N1CCCC2(CCC(=O)N(CCc3c[nH]cn3)C2)C1` (stereo not drawn), for which the cytotoxicity at 70.5 h is -1.99%. Turning to `CN(CCO)C[C@@H]1CN(Cc2ccccc2C#N)C[C@@H]1CO`, the cytotoxicity at 70.5 h was -3.5%. In the case of `O=C(COc1ccccc1N1CCCC1)N1CCN[C@H]2CS(=O)(=O)C[C@H]21`, the cytotoxicity at 70.5 h was -7.17%. As to `O=C(N1CCOCC1)N1CCC(Nc2ccncn2)CC1`, the cytotoxicity at 70.5 h is -7.28%. Next, `O=C(Nc1ccccc1OCCc1ccccn1)N1CCOCC(O)C1` (stereo not drawn): -8.87%; `CC(C)N1CCCC(C(=O)NCCc2csc(-c3ccncc3)n2)C1` (stereo not drawn): 22%. For `COc1ccc(CCCC(=O)N2C[C@H](C3CC3)[C@@H](N(C)C)C2)cc1`, the cytotoxicity at 70.5 h was -9.86%. With `O=C(NCC(O)c1ccc(F)cc1)C1CCN(C2CCCCC2)CC1` (stereo not drawn), the cytotoxicity at 70.5 h is -7.05%. Next, `CCCc1nncn1-c1cc(OC)ccc1OC`: -1.39%.

With `CCCn1cnnc1CNC1CCSC1` (stereo not drawn), the cytotoxicity at 70.5 h is -7.63%. Take `CCOc1ccc2[nH]c(=O)c(CN3CCCCC3C)cc2c1` (stereo not drawn): the cytotoxicity at 70.5 h was -3.42%. As to `CCc1ccc(S(=O)(=O)N2CC[C@@](O)(CCOC)[C@H](C)C2)cc1`, the cytotoxicity at 70.5 h was -10.2%.

Take `Cc1csc2ncnc(N3CCCC(Cn4cc(C(C)(C)O)nn4)C3)c12` (stereo not drawn): the cytotoxicity at 70.5 h was -6.36%. Next, `O=C1CC2(CCN(Cc3ccc(C(F)(F)F)nc3)CC2)CN1`: 8.74%; `C[C@@H]1CN(C(=O)c2c[nH]c(=O)c(Cl)c2)CC[C@@]1(O)C1CCOCC1`: -1.04%; `CCC(CO)N(Cc1ccco1)Cc1c(C)nn(C)c1Cl` (stereo not drawn): 3.17%.

With `CCc1cc(C(C)Nc2nc(-c3cccnc3)nc3c2CNC3)on1` (stereo not drawn), the cytotoxicity at 70.5 h is -5.83%. For the compound `OC1(CNCCc2csc(-c3cccnc3)n2)CCNC1` (stereo not drawn), the cytotoxicity at 70.5 h was -14.2%. With `COc1ccc(OC2CCN(C(=O)C3CCCN(C)C3)CC2)cc1` (stereo not drawn), the cytotoxicity at 70.5 h is -0.196%.

`Cn1c(N2CCOCC2)nc2cc(C(=O)N3CCC(O)(CO)C3)ccc21` (stereo not drawn): the cytotoxicity at 70.5 h is -2.61%. To `CCn1c(N)nc2cc(C(=O)N3Cc4ccccc4C3)cnc21` belongs -4.1%. For the compound `Cc1cc(C)c2c(N(C)CC3CCOC3)ncnc2n1` (stereo not drawn), the cytotoxicity at 70.5 h was -4.45%.

Regarding `Cn1cccc1C(=O)N1CCC(c2nccn2Cc2ccncc2)CC1`, the cytotoxicity at 70.5 h amounted to 25.5%. Next, `NCCc1cccc(CN2CCN(c3cccc(Cl)c3)C(=O)C2)c1`: -7.22%. `Cc1c[nH]c(CN2CCCCC2CCN(C)C)c(C)c1=O` (stereo not drawn): the cytotoxicity at 70.5 h was -10.5%. With `O=C(c1ccc(C2CCCO2)s1)N1CCCOCC1` (stereo not drawn), the cytotoxicity at 70.5 h was -8.57%. As to `COCc1cn(CC2CCN(Cc3cc(C)[nH]n3)CC2)nn1`, the cytotoxicity at 70.5 h was 20%. `NS(=O)(=O)CCCC(=O)N1CCC2(CC1)c1ccccc1CC2O` (stereo not drawn): the cytotoxicity at 70.5 h is -4.4%. Turning to `Cc1cc(CN2CCCC(CNC(=O)Cn3cccn3)C2)oc1C` (stereo not drawn), the cytotoxicity at 70.5 h is -6.83%.

Regarding `COc1ccccc1[C@@H]1CN(CC2CCC2)C[C@H]1C(=O)O`, the cytotoxicity at 70.5 h is -5.88%. Turning to `Cc1cc(C)n(CC(C)Nc2ncnc3c2CCNC3)n1` (stereo not drawn), the cytotoxicity at 70.5 h was -11.9%. Regarding `Oc1cc(CNCCCN2CCCC2)nc2ccc(F)cc12`, the cytotoxicity at 70.5 h turned out to be 12.5%. As for `Clc1ccccc1OC1CCN(CC2CCOC2)CC1` (stereo not drawn), the cytotoxicity at 70.5 h is 3.25%. As to `Oc1cc(CCC2CCCCN2)cc(-c2cccnc2)c1` (stereo not drawn), the cytotoxicity at 70.5 h is -0.0954%. Consider `O=C(c1ccc(S(=O)(=O)NCC(F)F)cc1)N1CC[C@H]2CNC[C@H]21`, for which the cytotoxicity at 70.5 h was determined as 0.673%.

Take `Cc1nnsc1C(=O)N1CCCC(c2nccn2Cc2cscn2)C1` (stereo not drawn): the cytotoxicity at 70.5 h is -0.672%. Take `CN1C[C@@H]2CC[C@H](CC1=O)N2C(=O)c1cc2ccccc2[nH]c1=O`: the cytotoxicity at 70.5 h is -6.85%. To `CC(C)Oc1cc(N2CCN(Cc3ccsc3)C(CCO)C2)nc(N)n1` (stereo not drawn) belongs -17%; to `Cc1nn(C)c(C)c1CN(C(=O)c1cc(Cl)c[nH]c1=O)C(C)C`, -11%.

As to `Cn1ccnc1-c1nccn1-c1cccc(CN2CCCC2)c1`, the cytotoxicity at 70.5 h is 2.21%. To `O=S(=O)(Cc1ccccc1CN1CC[C@H](CO)[C@H](O)C1)c1ccccc1` belongs -7.73%; to `COc1cc(F)ccc1-c1cc(CO)ccn1`, -8.15%; to `Cc1nc[nH]c1CN1CCC(CNC(=O)c2cccc3cnccc23)C1` (stereo not drawn), -7.78%. Consider `Cc1ncc2c(c1CNC(=O)C1(C)CC1)CCNC2`, for which the cytotoxicity at 70.5 h is -7.68%.

On to `Nc1nc2c(c(NCc3ccc(C(=O)N4CCCC4)cc3)n1)CCCC2`, for which the cytotoxicity at 70.5 h was determined as 2.85%. For `NC(=O)CCNC(=O)C1(N2CCCCC2)Cc2ccccc2C1`, the cytotoxicity at 70.5 h turned out to be 9.16%. As for `Cc1ccc(-c2ccnc(NC(C)c3c(C)n[nH]c3C)n2)c(C)n1` (stereo not drawn), the cytotoxicity at 70.5 h is -8.64%. For `CCOCC(=O)NC(C)c1cc(C)ccc1C` (stereo not drawn), the cytotoxicity at 70.5 h worked out at 12.7%.

Turning to `O=C(C1CCOCC1)N1C[C@H]2CC[C@@H]1CN(C1Cc3ccccc3C1)C2`, the cytotoxicity at 70.5 h is -5.9%.

On to `COc1cccc2c(=O)n(Cc3ccnc(C)c3)cnc12`, for which the cytotoxicity at 70.5 h is -26.7%.

With `Cc1nccn1CCCN1CCCC(c2nccn2CC2CCC2)C1` (stereo not drawn), the cytotoxicity at 70.5 h was -12.7%.

Take `Cc1ccc(-n2cccn2)cc1S(=O)(=O)N1C[C@@H]2CC[C@H](C1)N(C)C2`: the cytotoxicity at 70.5 h was -1.91%.

For `CCn1nc(CC(C)C)cc1C(=O)N1CCOCC(O)C1` (stereo not drawn), the cytotoxicity at 70.5 h was -2.68%.

In the case of `CC(C)(C)c1oc(C(N)=O)cc1CN1CCOC(C(F)(F)F)C1` (stereo not drawn), the cytotoxicity at 70.5 h worked out at 1.68%. Turning to `CC(O)Cc1cn(CC2CCN(C3CCSCC3)CC2)nn1` (stereo not drawn), the cytotoxicity at 70.5 h was -4.31%.

For the compound `COc1cccc(Cn2ncnc2CCC(C)N2CCN(C)CC2)c1` (stereo not drawn), the cytotoxicity at 70.5 h was -4.48%. Next, `COCc1nc(CNc2cc(C)nc(-c3ccccc3)n2)no1`: -8.75%; `CSc1ccc(-c2nc(CN3C[C@@H](C)NC[C@@H]3C)c(C)o2)cc1`: -4.1%. `c1ccc(-c2cc(CN3C[C@@H]4CC[C@H](C3)N(CC3CCC3)C4)on2)cc1`: the cytotoxicity at 70.5 h was -11.6%. For `CC(c1nccs1)N(C)C(=O)c1cc(CN(C)Cc2ccccc2)on1` (stereo not drawn), the cytotoxicity at 70.5 h came to 0.573%. For the compound `Cc1ccccc1OC(C(=O)N1CCC2(CC1)CN(C)C(=O)O2)C(C)C` (stereo not drawn), the cytotoxicity at 70.5 h is -4.56%.

Turning to `Cc1ccnc(CC(C)N(C)c2cc(CN)nc(C)n2)c1` (stereo not drawn), the cytotoxicity at 70.5 h was -5.59%. Take `CCOc1ccc(C(C)Nc2ncnc3c2CCNC3)cc1OCC` (stereo not drawn): the cytotoxicity at 70.5 h is -12%. In the case of `Cn1cc(-c2ccnc(NCC3CCCCO3)n2)cn1` (stereo not drawn), the cytotoxicity at 70.5 h amounted to 9.61%. Next, `COc1ccc(-c2noc(C3CC(C(C)C)=NO3)n2)cc1` (stereo not drawn): 1.77%.
